# Source: patent US20220395438A1, “TOOTH WHITENING COMPOSITION” (Universitat Autonoma de Barcelona, priority 2019, published 2022)
# Experiment: Tooth whitening treatments at 20 minutes according to 2^2 factorial design (colorimetric ΔE)
# Parameters: species or system bovine
# Settings: 8 specimens per treatment
compound,measurement,setting,value
"O=S([O-])S(=O)(=O)[O-].[Na+].[Na+] [Comparative 2, sodium metabisulfite]","increase in the whiteness of the tooth, ΔE ± standard deviation",3 minutes of treatment,7.3 ± 1.5
same,"increase in the whiteness of the tooth, ΔE ± standard deviation","3 minutes of treatment, listed as MBS",7.3
same,"increase in the whiteness of the tooth, ΔE ± standard deviation",6 minutes of treatment,12.9 ± 0.8
same,"increase in the whiteness of the tooth, ΔE ± standard deviation",9 minutes of treatment,14.7 ± 1.8
same,"increase in the whiteness of the tooth, ΔE ± standard deviation",14 minutes of treatment,14.8 ± 1.7
same,"increase in the whiteness of the tooth, ΔE ± standard deviation",20 minutes of treatment,16.2 ± 1.7
